Drawing on ChEMBL document CHEMBL3046159, “Synthesis of some 3,4-disubstituted-6,7-dihydro-imidazo[2,1-b][1,3]thiazole and 3,4-disubstituted-7,8-dihydro-6H-imidazo[2,1-b][1,3]thiazine derivatives and evaluation of their cytotoxicities against F2408 and 5RP7 cells” (Med Chem Res, 2008), this text covers Activity, IC50 and viability for five compounds.

Data set [1] has as its system 5RP7. The experiment in a line: Cytotoxicity against Rattus norvegicus (rat) 5RP7 cells at low concentration after 24 by MTT assay. It is filed as functional, cell-based. Background: Tetrazolium assays rely on reduction of a dye to a coloured formazan, in cell work by metabolically active cells.
Data set [2] is described as follows: Cytotoxicity against Rattus norvegicus (rat) F2408 cells after 24 hr by MTT assay. It is filed as cell-based. The note with it: F2408, 24 h.
Data set [3] in a line: Cytotoxicity against Rattus norvegicus (rat) 5RP7 cells after 24 hr by MTT assay. It is filed as functional, cell-based. The note with it: 5RP7, 24 h.
A short description of data set [4]: Cytotoxicity against Rattus norvegicus (rat) F2408 cells at low concentration after 24 hr by MTT assay. It is filed as cell-based. The following applies: f2408, 24 h.
A short description of data set [5]: Cytotoxicity against Rattus norvegicus (rat) 5RP7 cells at 0.0256 ug/ml by MTT assay. It is filed as functional.
Data set [6] is described as follows: Cytotoxicity against Rattus norvegicus (rat) 5RP7 cells at 0.0128 ug/ml by MTT assay. It is filed as functional.
Data set [7] in a line: Cytotoxicity against Rattus norvegicus (rat) 5RP7 cells at 0.064 ug/ml by MTT assay. It is filed as functional.
Data set [8] in a line: Cytotoxicity against Rattus norvegicus (rat) F2408 cells at 0.0256 ug/ml by MTT assay. It is filed as cell-based.
Data set [9] in a line: Cytotoxicity against Rattus norvegicus (rat) F2408 cells at 0.064 ug/ml by MTT assay. It is filed as cell-based.
Data set [10] in a line: Cytotoxicity against Rattus norvegicus (rat) F2408 cells at 0.0128 ug/ml by MTT assay. It is filed as cell-based.
For data set [11], the system named is 5RP7. Nature of the data set: Cytotoxicity against Rattus norvegicus (rat) 5RP7 cells at high concentration after 48 hr by MTT assay. It is filed as functional, cell-based.
Data set [12] is described as follows: Cytotoxicity against Rattus norvegicus (rat) F2408 cells after 48 hr by MTT assay. It is filed as cell-based. The following applies: f2408, 48 h.
The nature of data set [13]: Cytotoxicity against Rattus norvegicus (rat) F2408 cells assessed as cell viability at 0.0256 to 0.064 ug/ml after 24 hr by MTT assay. It is filed as cell-based. The following applies: read-out: Activity.
Data set [14] in a line: Cytotoxicity against Rattus norvegicus (rat) F2408 cells assessed as cell viability at 0.0128 ug/ml after 24 hr by MTT assay. It is filed as cell-based. The note with it: read-out: Activity.
Data set [15] in a line: Cytotoxicity against Rattus norvegicus (rat) 5RP7 cells assessed as cell viability at 0.0128 ug/ml after 24 hr by MTT assay. It is filed as functional. The following applies: 5RP7, 24 h, read-out: Activity.

For orientation: IC50 means the midpoint of a concentration-inhibition curve. Higher therefore signals weaker potency in that assay.

SMILES strings stand for the structures. In brackets after ≈: the same amount, converted by molar mass. Activity calls are given as the source filed them. No cut-off for these calls is given here.

For the compound `Cc1ccc(-c2nc3n(c2-c2ccc(C)cc2)CCS3)cc1`, in the data set with 5RP7 [1], the result was Active. Further, the IC50 stood at 15 µg/mL (≈ 49 µM) in data set [2] and 18 µg/mL (≈ 58.7 µM) in data set [3]. Also, in data set [4], the Activity entry was “Non-toxic”.

On to `COc1ccc(-c2nc3n(c2-c2ccc(OC)cc2)CCS3)cc1`, for which the outcome in the data set on 5RP7 [1] was Active. Also, the IC50 in data set [2] was 29 µg/mL (≈ 85.7 µM); in data set [3], 22 µg/mL (≈ 65 µM). Also, the Activity result in data set [4] is reported as “Non-toxic”.

For `c1ccc(-c2nc3n(c2-c2ccccc2)CCCS3)cc1`, the Activity in [5] was 28%; in data set [6] it was 30%; in data set [7], 21%; in [8], 21%; in [9], 18%; in [10], 20%. The values for the IC50 in data set [2] and in data set [3] were 10 µg/mL (≈ 34.2 µM) and 2.9 µg/mL (≈ 9.92 µM), respectively.

Regarding `c1ccc(-c2nc3n(c2-c2ccccc2)CCS3)cc1`, in the data set with 5RP7 [11], the outcome was Active. Besides, in data set [12], the Activity result is listed as “Toxic”. For the same compound, the IC50 was 9.5 µg/mL (≈ 34.1 µM) in [2] and 15 µg/mL (≈ 53.9 µM) in data set [3].

As for `Cc1ccc(-c2nc3n(c2-c2ccc(C)cc2)CCCS3)cc1`, the IC50 in data set [2] amounted to 12 µg/mL (≈ 37.4 µM); in data set [3], 4.6 µg/mL (≈ 14.4 µM). Also, the viability at 24 h in data set [13] turned out to be 100%. Besides, the viability at 24 h, 0.0128 ug/ml in data set [14] is 100%. The viability at 0.0128 µg/mL in data set [15] is 87%.
